pKi: −log10 of the molar value.
biological target: T1, human GnRH receptor (Homo sapiens, UniProt P30968); experiment: Peptide competition radioligand binding displacement assay, human GnRH receptor membranes; conditions: one or more of the peptide competition human receptor binding assays
T1 construct: expressed in transfected cells; host or cells: RBL cells, stably transfected (in general)
T1 sequence (P30968 1-328): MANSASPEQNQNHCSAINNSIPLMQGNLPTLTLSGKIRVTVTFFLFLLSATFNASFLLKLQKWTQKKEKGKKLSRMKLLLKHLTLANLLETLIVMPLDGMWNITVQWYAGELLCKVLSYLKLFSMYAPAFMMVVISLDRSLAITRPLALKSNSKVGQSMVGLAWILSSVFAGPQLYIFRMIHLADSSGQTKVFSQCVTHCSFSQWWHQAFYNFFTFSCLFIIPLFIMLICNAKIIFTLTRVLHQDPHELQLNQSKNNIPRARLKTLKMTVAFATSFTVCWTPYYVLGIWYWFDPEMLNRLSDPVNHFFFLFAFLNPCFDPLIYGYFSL
Summary of the method: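 Membranes for radioligand binding were prepared from RBL cells stably expressing human GnRH receptor, which were lysed by nitrogen cavitation at 900 psi, 4° C. Membranes from HEK293 cells stably transfected with human receptor were held in 10 mM HEPES pH 7.5, 150 mM NaCl, 0.1% BSA. Transiently transfected COS-7 cells were used for other species.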

pKi, ≥ 7.00:
COc1cc(Cl)c(-c2cnc(C(F)(F)F)cc2C#N)cc1C(=O)N(C)c1cnccc1OC [39-20]
CNCCOc1cc(Cl)c(-c2cnc(C(F)(F)F)cc2C#N)cc1C(=O)N(C)c1ccccc1OC [42-17]
CN(C(=O)c1ccc(Cl)c(-c2cnc(C(F)(F)F)cc2C#N)c1)c1ccccc1OCCC(=O)O [11-4, 3-(2-{[4-chloro-3-(4-cyano-6-trifluoromethyl-pyridin-3-yl)-benzoyl]-methyl-amino}-phenoxy)-propionic acid]
Cc1cc(Cl)ncc1-c1cc(C(=O)N(C)c2ccccc2C)ccc1Cl [2-18]
COc1cccc(C)c1N(C)C(=O)c1cc(-c2nc3ccccc3cc2C#N)c(Cl)cc1OCCCCO [21-3]
COc1ccccc1N(C)C(=O)c1cc(-c2cnc(C(F)(F)F)cc2C#N)c(Cl)cc1OCCc1cnccn1 [46-3]
Cc1cc(C#N)ncc1-c1cc(C(=O)N(C)c2c(C)cccc2OCCC(=O)O)ccc1Cl [11-6]
COc1cc(Cl)c(-c2cnc(C(F)(F)F)cc2C#N)cc1C(=O)N(C)c1ccccc1-c1cnco1 [39-12]
Cc1cc(Cl)ncc1-c1cc(C(=O)N(C)c2ccccc2F)ccc1Cl [2-36]
COc1cc(Cl)c(-c2cnc(C(F)(F)F)cc2C#N)cc1C(=O)N(C)c1ccccn1 [39-14]
CN(C(=O)c1ccc(Cl)c(-c2nc3ccccc3cc2C#N)c1)c1ccccc1CCCC(=O)O [15-1, 4-(2-{[4-Chloro-3-(3-cyano-quinolin-2-yl)-benzoyl]-methyl-amino}-phenyl)-butyric acid]
Cc1cc(Cl)ncc1-c1cc(C(=O)N(C)c2ccccc2OCCCCC(=O)O)ccc1Cl [4-5]
Cc1cc(C#N)ncc1-c1cc(C(=O)N(C)c2c(C)cccc2OCCCO)ccc1Cl [9-5]
Cc1cc(Cl)ncc1-c1cc(C(=O)N(C)c2ccccc2OCCCC(=O)O)ccc1Cl [4-2]
COc1ccccc1N(C)C(=O)c1ccc(Cl)c(-c2ncnc3scc(C)c23)c1 [2-50]
COc1c(Cl)cccc1N(C)C(=O)c1ccc(Cl)c(-c2cnc(C)cc2Cl)c1 [2-46]
COc1ccccc1N(C)C(=O)c1cc(-c2cnc(C(F)(F)F)cc2C#N)c(Cl)cc1OCCN1CCOCC1 [42-2]
COc1ccccc1N(C)C(=O)c1ccc(Cl)c(-c2ncc(F)cc2F)c1 [2-59]
CN(C(=O)c1ccc(Cl)c(-c2cnc(C(F)(F)F)cc2C#N)c1)c1ccccc1OCCC(=O)NCCN [53-1, N-{2-[2-(2-Amino-ethylcarbamoyl)-ethoxy]-phenyl}-4-chloro-3-(4-cyano-6-trifluoromethyl-pyridin-3-yl)-N-methylbenzamide]
COCc1cc(Cl)ccc1N(C)C(=O)c1cc(-c2cnc(C(F)(F)F)cc2C#N)c(Cl)cc1OCCCC(=O)O [34-9]
Cc1cccc(OCCCC(=O)O)c1N(C)C(=O)c1ccc(Cl)c(-c2cnc(C(F)(F)F)cc2C#N)c1 [4-11]
COc1ccccc1N(C)C(=O)c1cc(-c2cnc(C(F)(F)F)cc2C#N)c(Cl)cc1OCCCn1cncn1 [42-13]
Cc1cc(C#N)ncc1-c1cc(C(=O)N(C)c2c(C)cccc2C)c(OCCCCO)cc1Cl [21-5]
COc1ccccc1N(C)C(=O)c1ccc(Cl)c(-c2ccc(Cl)nc2Cl)c1 [2-6]
CN(C(=O)c1ccc(Cl)c(-c2cnc(C(F)(F)F)cc2C#N)c1)c1ccccc1CCCC(=O)O [14-4]
CC(OC(=O)CCOc1ccccc1N(C)C(=O)c1ccc(Cl)c(-c2cnc(C(F)(F)F)cc2C#N)c1)OC(=O)OC1CCCCC1 (stereo not drawn) [37-1, 3-(2-{[4-Chloro-3-(4-cyano-6-trifluoromethyl-pyridin-3-yl)-benzoyl]-methyl-amino}-phenoxy)-propionic acid 1-cyclohexyloxycarbonyloxy-ethyl ester]
CN(C(=O)c1ccc(Cl)c(-c2cnc(C(F)(F)F)cc2C#N)c1)c1ccccc1OCCc1n[nH]c(=O)o1 [31-1, 4-Chloro-3-(4-cyano-6-trifluoromethyl-pyridin-3-yl)-N-methyl-N-{2-[2-(5-oxo-4,5-dihydro-[1,3,4]oxadiazol-2-yl)ethoxy]-phenyl}-benzamide]
COc1cccc(C)c1N(C)C(=O)c1cc(-c2cnc(C(F)(F)F)cc2C#N)c(Cl)cc1OCCCC(=O)O [22-1, 4-{5-Chloro-4-(4-cyano-6-trifluoromethyl-pyridin-3-yl)-2-[(2-methoxy-6-methyl-phenyl)-methyl-carbamoyl]-phenoxy}-butyric acid]
COc1ccccc1N(C)C(=O)c1ccc(Cl)c(-c2cnc(C(N)=O)cc2C)c1 [24-2, 5-{2-chloro-5-[(2-methoxy-phenyl)-methyl-carbamoyl]-phenyl}-4-methyl-pyridine-2-carboxylic acid amide]
COc1ccccc1N(C)C(=O)c1cc(-c2cnc(C(F)(F)F)cc2C#N)c(Cl)cc1OCCCc1nnn[nH]1 [35-1, 4-Chloro-5-(4-cyano-6-trifluoromethyl-pyridin-3-yl)-N-(2-methoxy-phenyl)-N-methyl-2-[3-(1H-tetrazol-5-yl)-propoxy]-benzamide]
COc1ccccc1N(C)C(=O)c1cc(-c2cnc(C(F)(F)F)cc2C#N)c(Cl)cc1OCCc1ccccn1 [42-4]
COc1cccc(C)c1N(C)C(=O)c1cc(-c2cnc(C#N)cc2C)c(Cl)cc1OCCCCO [21-2]
COc1cccc(C)c1N(C)C(=O)c1cc(-c2cnc(C(F)(F)F)cc2C#N)c(Cl)cc1OCCC(=O)O [22-10]
CN(C(=O)c1ccc(Cl)c(-c2ncc(C(F)(F)F)cc2Cl)c1)c1ccccc1F [2-76]
COC(=O)COc1ccccc1N(C)C(=O)c1ccc(Cl)c(-c2cnc(C#N)cc2C)c1 [3-3]
Cc1cc(Cl)c(-c2cc(C(=O)N(C)c3ccccc3F)ccc2Cl)cn1 [2-37]
COc1cccc(C)c1N(C)C(=O)c1ccc(Cl)c(-c2cnc(C(F)(F)F)cc2C#N)c1 [2-35]
COc1cc(Cl)c(-c2cnc(C(F)(F)F)cc2C#N)cc1C(=O)N(C)c1c(C)cccc1OC [39-10]
COc1cccc(N(C)C(=O)c2cc(-c3cnc(C(F)(F)F)cc3C#N)c(Cl)cc2OC)n1 [39-23]
COc1ccccc1N(C)C(=O)c1cc(-c2cnc(C(F)(F)F)cc2C#N)c(Cl)cc1OCCNS(C)(=O)=O [48-1, 4-Chloro-5-(4-cyano-6-trifluoromethyl-pyridin-3-yl)-2-(2-methanesulfonylamino-ethoxy)-N-(2-methoxy-phenyl)-N-methyl-benzamide]
COc1ccccc1N(C)C(=O)c1ccc(Cl)c(-c2ncc(Cl)cc2C)c1 [2-57]
Cc1cc(Cl)cnc1-c1cc(C(=O)N(C)c2cccc(C)c2C)ccc1Cl [2-71]
CCOC(=O)CCOc1ccccc1N(C)C(=O)c1ccc(Cl)c(-c2cnc(C(F)(F)F)cc2C#N)c1 [16-2, 3-(2-{[4-chloro-3-(4-cyano-6-trifluoromethyl-pyridin-3-yl)-benzoyl]-methyl-amino}-phenoxy)-propionic acid ethyl ester]
COC(=O)c1ccccc1N(C)C(=O)c1ccc(Cl)c(-c2ncc(C(F)(F)F)cc2Cl)c1 [2-75]
COc1ccccc1N(C(=O)c1ccc(Cl)c(-c2ncc(Cl)cc2Cl)c1)C1CC1 [18-1, 4-Chloro-N-cyclopropyl-3-(3,5-dichloro-pyridin-2-yl)-N-(2-methoxy-phenyl)-benzamide]
COc1ccccc1N(C)C(=O)c1ccc(Cl)c(-c2ncc(C)cc2C)c1 [2-60]
COC(=O)CCCOc1ccccc1N(C)C(=O)c1ccc(Cl)c(-c2cnc(C(F)(F)F)cc2C#N)c1 [3-10]
COc1ccccc1N(C)C(=O)c1cc(-c2cnc(C(F)(F)F)cc2C#N)c(Cl)cc1OCCN1CCC[C@H]1C(=O)O [49-3]
COc1ccc(Cl)cc1N(C)C(=O)c1cc(-c2cnc(C(F)(F)F)cc2C#N)c(Cl)cc1OCCCC(=O)O [34-7]
Cc1cc(Cl)ncc1-c1cc(C(=O)N(C)c2cccc(F)c2OCCCC(=O)O)ccc1Cl [4-4]
COC(=O)CCCOc1c(F)cccc1N(C)C(=O)c1ccc(Cl)c(-c2cnc(C(F)(F)F)cc2C#N)c1 [3-12]
COC(=O)c1ccccc1N(C)C(=O)c1ccc(Cl)c(-c2ncc(C)cc2Cl)c1 [2-77]
COC(=O)CCCOc1cccc(C)c1N(C)C(=O)c1ccc(Cl)c(-c2cnc(Cl)cc2C)c1 [3-5]
COc1ccccc1N(C)C(=O)c1cc(-c2cnc(C(F)(F)F)cc2C#N)c(Cl)cc1OCCCC(=O)O [34-1, 4-{5-chloro-4-(4-cyano-6-trifluoromethyl-pyridin-3-yl)-2-[(2-methoxy-phenyl)-methyl-carbamoyl]-phenoxy}-butyric acid]

From patent US8481738B2, “Gonadotropin-releasing hormone receptor antagonists and methods relating thereto” (Neurocrine Biosciences, Inc., priority 2007, dated 2013)
